Reference: PubChem BioAssay AID308 (DTP/NCI, 2004)
Several values for one entry are separate records, joined by “and”; a condition that tells them apart may be missing. Equal values may be shown once. Inconclusive results and toxic doses are left out.

Test system: BDF1 mice, L1210 6-MP/6-TG resistant leukemia ip, survival T/C
Assay: NCI In Vivo Anticancer Drug Screen. Data for tumor model L1210 Leukemia resistant to 6-MP and 6-Thioguanine; NSC 755, NSC 752 (intraperitoneal) in B6D2F1 (BDF1) mice
Conditions: endpoint: mean survival time, higher = longer survival
Protocol: The antitumor activity of compounds was measured in mice bearing transplantable tumors. Survival or tumor size were measured and the results are expressed as the measurement made in the treated group (T) divided by the measurement made in the vehicle treated control group (C). The tumor model used in this assay is L1210 Leukemia resistant to 6-MP and 6-Thioguanine; NSC 755, NSC 752 (intraperitoneal) in B6D2F1 (BDF1) mice

[1] = dose: 10.0 mg/kg/injection, schedule: Q01DX Z (ip), vehicle: carboxymethylcellulose (CMC)
[2] = dose: 40.0 mg/kg/injection, schedule: Q01DX Z (ip), vehicle: carboxymethylcellulose (CMC)
[3] = dose: 0.25 mg/kg/injection, schedule: Q01DX Z (ip), vehicle: saline
[4] = dose: 125.0 mg/kg/injection, schedule: Q01DX Z (ip), vehicle: carboxymethylcellulose (CMC)
[5] = dose: 250.0 mg/kg/injection, schedule: Q01DX Z (ip), vehicle: carboxymethylcellulose (CMC)

Structure (SMILES): Nc1ccc(C(=O)NO)cc1
- T/C (dose: 112.5 mg/kg/injection, schedule: Q01DX015 (ip), vehicle: carboxymethylcellulose (CMC)): 102 % of control
- T/C (dose: 225.0 mg/kg/injection, schedule: Q01DX015 (ip), vehicle: carboxymethylcellulose (CMC)): 91 % of control
- T/C (dose: 450.0 mg/kg/injection, schedule: Q01DX015 (ip), vehicle: carboxymethylcellulose (CMC)): 90 % of control
- T/C (dose: 900.0 mg/kg/injection, schedule: Q01DX015 (ip), vehicle: carboxymethylcellulose (CMC)): 97 % of control

Structure (SMILES): CC[C@]1(O)C[C@H]2CN(CCc3c([nH]c4ccccc34)[C@@](C(=O)OC)(c3cc4c(cc3OC)N(C=O)[C@H]3[C@@](O)(C(=O)OC)[C@H](OC(C)=O)[C@]5(CC)C=CCN6CC[C@]43[C@@H]65)C2)C1
- T/C (dose: 0.09 mg/kg/injection, schedule: Q01DX015 (ip), vehicle: carboxymethylcellulose (CMC)): 91 % of control and 110 % of control
- T/C (dose: 0.13 mg/kg/injection, schedule: Q01DX015 (ip), vehicle: carboxymethylcellulose (CMC)): 114 % of control and 98 % of control
- T/C (dose: 0.2 mg/kg/injection, schedule: Q01DX015 (ip), vehicle: carboxymethylcellulose (CMC)): 94 % of control and 106 % of control
- T/C (dose: 0.3 mg/kg/injection, schedule: Q01DX015 (ip), vehicle: carboxymethylcellulose (CMC)): 90 % of control and 92 % of control
- T/C (dose: 0.45 mg/kg/injection, schedule: Q01DX015 (ip), vehicle: carboxymethylcellulose (CMC)): 93 % of control

Structure (SMILES): CCC(=O)OCC1OC(n2cnc3c(=S)nc(N)[nH]c32)C(OC(=O)CC)C1OC(=O)CC (stereo not given)
- T/C (dose: 5.0 mg/kg/injection, schedule: Q01DX Z (ip), vehicle: carboxymethylcellulose (CMC)): 109 % of control
- T/C [1]: 117 % of control
- T/C (dose: 20.0 mg/kg/injection, schedule: Q01DX Z (ip), vehicle: carboxymethylcellulose (CMC)): 109 % of control
- T/C [2]: 103 % of control

Structure (SMILES): O[C@H](CN1CC1)[C@@H](O)CN1CC1
- T/C [3]: 253 % of control
- T/C (dose: 1.0 mg/kg/injection, schedule: Q01DX Z (ip), vehicle: saline): 91 % of control
- T/C (dose: 90.0 micrograms/kg/injection, schedule: Q01DX Z (ip), vehicle: saline): 156 % of control
- T/C (dose: 180.0 micrograms/kg/injection, schedule: Q01DX Z (ip), vehicle: saline): 121 % of control
- T/C (dose: 370.0 micrograms/kg/injection, schedule: Q01DX Z (ip), vehicle: saline): 120 % of control

Structure (SMILES): COCCCNS(=O)(=O)c1ncnc2nc[nH]c12
- T/C (dose: 25.0 mg/kg/injection, schedule: Q01DX Z (ip), vehicle: carboxymethylcellulose (CMC)): 92 % of control
- T/C (dose: 100.0 mg/kg/injection, schedule: Q01DX Z (ip), vehicle: carboxymethylcellulose (CMC)): 90 % of control

Structure (SMILES): Nc1nc(F)nc2c1ncn2C1OC(CO)C(O)C1O (stereo not given)
- T/C (dose: 0.06 mg/kg/injection, schedule: Q01DX Z (ip), vehicle: saline): 109 % of control
- T/C (dose: 0.12 mg/kg/injection, schedule: Q01DX Z (ip), vehicle: saline): 104 % of control
- T/C [3]: 106 % of control
- T/C (dose: 0.5 mg/kg/injection, schedule: Q01DX Z (ip), vehicle: saline): 101 % of control
- T/C (dose: 0.75 mg/kg/injection, schedule: Q01DX Z (ip), vehicle: saline): 119 % of control
- T/C (dose: 1.5 mg/kg/injection, schedule: Q01DX Z (ip), vehicle: saline): 107 % of control
- T/C (dose: 3.0 mg/kg/injection, schedule: Q01DX Z (ip), vehicle: saline): 115 % of control
- T/C (dose: 6.0 mg/kg/injection, schedule: Q01DX Z (ip), vehicle: saline): 90 % of control

Structure (SMILES): CCCCCCCSc1ncnc2c1ncn2CO
- T/C (dose: 150.0 mg/kg/injection, schedule: Q01DX009 (ip), vehicle: other): 96 % of control
- T/C (dose: 200.0 mg/kg/injection, schedule: Q01DX009 (ip), vehicle: other): 95 % of control
- T/C (dose: 300.0 mg/kg/injection, schedule: Q01DX009 (ip), vehicle: other): 100 % of control
- T/C (dose: 400.0 mg/kg/injection, schedule: Q01DX009 (ip), vehicle: other): 86 % of control

Structure (SMILES): CCn1cnc2c(SC3CCCC3)ncnc21
- T/C [4]: 98 % of control
- T/C [5]: 98 % of control

Structure (SMILES): COc1cc([C@@H]2c3cc4c(cc3[C@H](O)[C@H]3COC(=O)[C@@H]23)OCO4)cc(OC)c1OC
- T/C [1]: 124 % of control
- T/C [2]: 101 % of control

Structure (SMILES): CC(C)n1cnc2c(=S)nc[nH]c21
- T/C (dose: 2.5 mg/kg/injection, schedule: Q01DX015 (ip), vehicle: carboxymethylcellulose (CMC)): 96 % of control
- T/C (dose: 5.0 mg/kg/injection, schedule: Q01DX015 (ip), vehicle: carboxymethylcellulose (CMC)): 96 % of control
- T/C (dose: 10.0 mg/kg/injection, schedule: Q01DX015 (ip), vehicle: carboxymethylcellulose (CMC)): 96 % of control
- T/C (dose: 20.0 mg/kg/injection, schedule: Q01DX015 (ip), vehicle: carboxymethylcellulose (CMC)): 94 % of control
- T/C (dose: 42.0 mg/kg/injection, schedule: Q01DX015 (ip), vehicle: carboxymethylcellulose (CMC)): 86 % of control and 100 % of control
- T/C (dose: 63.0 mg/kg/injection, schedule: Q01DX015 (ip), vehicle: carboxymethylcellulose (CMC)): 86 % of control
- T/C (dose: 95.0 mg/kg/injection, schedule: Q01DX015 (ip), vehicle: carboxymethylcellulose (CMC)): 86 % of control

Structure (SMILES): Nc1nc(=S)c2[nH]cnc2[nH]1
- T/C (dose: 0.37 mg/kg/injection, schedule: Q01DX Z (ip), vehicle: carboxymethylcellulose (CMC)): 123 % of control
- T/C (dose: 0.5 mg/kg/injection, schedule: Q01DX Z (ip), vehicle: carboxymethylcellulose (CMC)): 92 % of control
- T/C (dose: 0.75 mg/kg/injection, schedule: Q01DX Z (ip), vehicle: carboxymethylcellulose (CMC)): 101 % of control
- T/C (dose: 1.0 mg/kg/injection, schedule: Q01DX Z (ip), vehicle: carboxymethylcellulose (CMC)): 103 % of control
- T/C (dose: 1.25 mg/kg/injection, schedule: Q01DX Z (ip), vehicle: carboxymethylcellulose (CMC)): 104 % of control
- T/C (dose: 2.5 mg/kg/injection, schedule: Q01DX Z (ip), vehicle: carboxymethylcellulose (CMC)): 95 % of control

Structure (SMILES): CSc1ncnc2c1ncn2C1CC(O)C(CO)O1 (stereo not given)
- T/C (dose: 32.0 mg/kg/injection, schedule: Q## X032 (ip), vehicle: saline): 105 % of control
- T/C (dose: 48.0 mg/kg/injection, schedule: Q## X032 (ip), vehicle: saline): 96 % of control
- T/C (dose: 72.0 mg/kg/injection, schedule: Q## X032 (ip), vehicle: saline): 107 % of control

Structure (SMILES): Ic1ncnc2nc[nH]c12
- T/C (dose: 62.5 mg/kg/injection, schedule: Q01DX Z (ip), vehicle: carboxymethylcellulose (CMC)): 88 % of control
- T/C [4]: 89 % of control
- T/C [5]: 89 % of control

Structure (SMILES): O=CN(O)CC(=O)O
- T/C (dose: 62.0 mg/kg/injection, schedule: Q01DX Z (ip), vehicle: saline): 100 % of control
- T/C (dose: 125.0 mg/kg/injection, schedule: Q01DX Z (ip), vehicle: saline): 112 % of control
- T/C (dose: 250.0 mg/kg/injection, schedule: Q01DX Z (ip), vehicle: saline): 107 % of control
- T/C (dose: 500.0 mg/kg/injection, schedule: Q01DX Z (ip), vehicle: saline): 105 % of control

Structure (SMILES): CN(C)c1ccc(/C=C\c2ccnc3ccccc23)cc1
- T/C (dose: 1.87 mg/kg/injection, schedule: Q01DX Z (ip), vehicle: carboxymethylcellulose (CMC)): 106 % of control
- T/C (dose: 3.75 mg/kg/injection, schedule: Q01DX Z (ip), vehicle: carboxymethylcellulose (CMC)): 97 % of control
- T/C (dose: 7.5 mg/kg/injection, schedule: Q01DX Z (ip), vehicle: carboxymethylcellulose (CMC)): 100 % of control
- T/C (dose: 15.0 mg/kg/injection, schedule: Q01DX Z (ip), vehicle: carboxymethylcellulose (CMC)): 91 % of control

Structure (SMILES): C[C@]12C=CC(=O)C=C1CC[C@@H]1[C@@H]2C(=O)C[C@@]2(C)[C@H]1CC[C@]2(O)C(=O)CO
- T/C (dose: 50.0 mg/kg/injection, schedule: Q01DX Z (sc), vehicle: steriod suspending solution): 105 % of control
- T/C (dose: 100.0 mg/kg/injection, schedule: Q01DX Z (sc), vehicle: steriod suspending solution): 100 % of control
- T/C (dose: 150.0 mg/kg/injection, schedule: Q01DX Z (sc), vehicle: steriod suspending solution): 93 % of control
- T/C (dose: 200.0 mg/kg/injection, schedule: Q01DX Z (sc), vehicle: steriod suspending solution): 96 % of control

Structure (SMILES): C=CCn1cnc2c(=S)nc[nH]c21
- T/C (dose: 18.0 mg/kg/injection, schedule: Q01DX015 (ip), vehicle: other): 103 % of control
- T/C (dose: 26.0 mg/kg/injection, schedule: Q01DX015 (ip), vehicle: other): 108 % of control
- T/C (dose: 40.0 mg/kg/injection, schedule: Q01DX015 (ip), vehicle: other): 101 % of control
- T/C (dose: 60.0 mg/kg/injection, schedule: Q01DX015 (ip), vehicle: other): 95 % of control

Structure (SMILES): Nn1cnc2c(=S)nc[nH]c21
- T/C (dose: 18.0 mg/kg/injection, schedule: Q01DX009 (ip), vehicle: other): 98 % of control
- T/C (dose: 28.0 mg/kg/injection, schedule: Q01DX009 (ip), vehicle: other): 96 % of control
- T/C (dose: 42.0 mg/kg/injection, schedule: Q01DX015 (ip), vehicle: other): 99 % of control
- T/C (dose: 72.0 mg/kg/injection, schedule: Q01DX015 (ip), vehicle: other): 92 % of control
